# Assay results taken from patent EP4653001A1, “TREATMENT, DIAGNOSIS AND/OR PROGNOSIS OF MITOCHONDRIAL DISEASES” (Universidad Autónoma de Madrid, priority 2024, dated 2025).
# Columns and labels:
# astrocytes = assay: NADPH/NADP+ levels in astrocytes; assay type: cell-based, mouse
# Experimental: Primary cultures of C57BL/6 mouse cortical astrocytes were derived from postnatal day 2-3 pups. They were plated on pre-treated dishes coated with Poly-L-lysine (100 µg/ml) and cultured in DMEM/F-12 (ThermoFisher) supplemented with 15% FBS and 1% penicillin/streptomycin (P/S). After 24 hours of plating, the medium was switched to 10% FBS.
# The NADP/NADP-Glo™ Assay (Promega) was employed to assess the NADP/NADPH ratio in cultured cells, following the manufacturer's instructions (Technical Bulletin Number TM400). This bioluminescent assay can detect both total oxidized and reduced nicotinamide adenine dinucleotide phosphates (NADP+ and NADPH) and determine their ratio.
# Cells were cultured in 24-well plates (Falcon®) at varying concentrations depending on the cell type and the specific experiment. After removing the media, we added 100 µl of PBS 1X per well and lysed the cells by introducing 100 µl of a base solution with 1% DTAB (1:1 ratio). To adapt the volumes for a 96-well plate, we divided the 200 µl total into two parts, allocating 50 µl for measuring NADP+ and 50 µl for NADPH in separate positions on the plate, allowing us to measure both NADP and NADPH levels. The assay was then carried out as per the standard protocol. Luminescence was measured using the CLARIOstar Plus plate reader from BMG LABTECH.
# PC KO and ACLY KO cells = assay: Intracellular malate levels in PC KO and ACLY KO 143B cells; assay type: cell-based; details: double ablation of PC and ACLY, 100 nM, 72 h
# Experimental: 1-5.0×10^6 cells were harvested on dry ice with 1 mL pre-chilled 80% HPLC-grade methanol (Fluka Analytical). The cell mixture was incubated for 15 min on dry ice prior to centrifugation at 18,000 × g for 10 min at 4°C. The supernatant was retained, and the remaining cell pellet was resuspended in 800 µL chilled 80% methanol and centrifuged. Supernatant was combined with the previous retention and was lyophilized using a SpeedVac (Thermo Fisher). Lyophilized samples were resuspended in 20 µL ultrapure water and subjected to metabolomics profiling using the AB/SCIEX 5500 QTRAP triple quadrupole instrument. Data analysis was performed using the GiTools software. 13C-labeled glutamine and glucose was acquired in SIGMA (605166 and 389374).
# To assess the relative contribution of PC and ACLY to cell death phenotype in ETC deficient cells upon PPP inhibition, we treated PC KO and ACLY KO cells with Piericidin, G6PDi or both. […] A plausible explanation for the lack of phenotype in both PC and ACLY KO cells could be the upregulation of compensatory mechanisms whereby PC depletion would cause an enhanced rerouting of glutamine through ACLY and vice versa. […]
# mouse primary astrocytes = assay: Morphology, proliferation and viability of primary astrocytes; assay type: cell-based
# Experimental: All cell lines, 143b, HeLa, U2OS, and transmitochondrial cybrids carrying mutation in CI (ND2), CIII (CytB) or CIV (Cox2) subunits, were maintained in DMEM high glucose (HyClone), 10% FBS and 1% P/S at 37°C with 5% CO2. Mitochondrial mutant cells were cultured with supplementation of 50 µg/mL uridine. The selected cancer cell lines with different levels of malic enzyme (HCC15, KYSE410, CAKI1, J82, MDAMB453, Colo320, NCIH1703) were obtained from the DSMZ-German Collection of Microorganisms and Cell Cultures GmbH and cultured in the same DMEM 10% FBS medium. OCI-Lys3 and RCH-ACV cell lines (cells in suspension), were obtained from the same repository and cultured in RPMI 10% FBS medium. Transfections for gain- and loss-of-function studies were performed according to the manufacturer's instructions using the polyfect reagent (Qiagen, 301107). For cell number and proliferation experiments, cells were seeded in 12 or 6-well plates and allowed to proliferate for the specified durations. Subsequently, cells were trypsinized and quantified using a hemocytometer (NanoEnTek, DHC-N01). Cell viability was quantified using propidium iodide (PI; 50 µg/ml) staining.
# Primary cultures of C57BL/6 mouse cortical astrocytes were derived from postnatal day 2-3 pups. […]
smiles,measurement,setting,value
"CC=C(C)C(O)C(C)C=C(C)C=CCC(C)=CCc1nc(OC)c(OC)c(O)c1C (centres unmarked) [Piericidin, Piericidin A]",levels of NADPH,"astrocytes; PC and ME1 knockdown astrocytes, 100nM, 96 h",reduced
same,NADPH levels,"astrocytes; astrocytes, 100 nM, 24 h",did not cause any alteration
same,intracellular malate levels,PC KO and ACLY KO cells,parallel decrease
same,proliferation,"mouse primary astrocytes; PC and ME1 knockdown astrocytes vs WT controls, 100nM, 96 h",proliferated less
same,"morphology, proliferation, or overall viability",mouse primary astrocytes; mouse primary astrocytes,no discernible impact
